Key:
Assay in all cases: relative viability (nuclei count vs DMSO), 5 days (fraction); higher = more cells survive
[1] = tested on: 201T
In short: (§1)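 Relative viability divides the nuclei count in treated wells by that in vehicle wells. Lung cancer cell lines were seeded in 1536-well plates, dosed by pin tool the next day, and fixed and stained after 5 days in one step with final 0.05% Triton X-100, 1% formaldehyde and 1 ug/ml Hoechst. Dosing was a single drug or a fixed anchor-drug dose plus five library-drug doses (not always all listed) in √10 steps, and values are medians of duplicate plates imaged at 4×.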

[2] = tested on: ABC-1
In short: as §1

[3] = tested on: BEN
In short: as §1

[4] = tested on: CAL-12T
In short: as §1

[5] = tested on: COR-L 105
In short: as §1

[6] = tested on: EKVX
In short: as §1

[7] = tested on: EMC-BAC-2
In short: as §1

[8] = tested on: HCC-15
In short: as §1

[9] = tested on: HCC-44
In short: as §1

[10] = tested on: LK-2
In short: as §1

[11] = tested on: LU99A
In short: as §1

[12] = tested on: NCI-H1651
In short: as §1

[13] = tested on: NCI-H2023
In short: as §1

[14] = tested on: NCI-H322M
In short: as §1

[15] = tested on: NCI-H358
In short: as §1

[16] = tested on: NCI-H460
In short: as §1

[17] = tested on: NCI-H520
In short: as §1

[18] = tested on: NCI-H522
In short: as §1

[19] = tested on: NCI-H727
In short: as §1

[20] = tested on: NCI-H838
In short: as §1

[21] = tested on: PC-3 [JPC-3]
In short: as §1

[22] = tested on: SW 900
In short: as §1

SMILES: CN1CCN(CCOc2cc(OC3CCOCC3)c3c(Nc4c(Cl)ccc5c4OCO5)ncnc3c2)CC1 [Saracatinib] + Cc1cc(Nc2cc(N3CCN(C)CC3)nc(Sc3ccc(NC(=O)C4CC4)cc3)n2)n[nH]1 [Tozasertib] (partner 0.1 µM)
- relative viability ([1]; first compound 0.02 µM): 0.977
- relative viability ([1]; first compound 0.2 µM): 0.89
- relative viability ([1]; first compound 0.6325 µM): 0.821
- relative viability ([1]; first compound 2 µM): 0.686
- relative viability ([2]; first compound 0.02 µM): 0.157
- relative viability ([2]; first compound 0.2 µM): 0.164
- relative viability ([2]; first compound 0.6325 µM): 0.169
- relative viability ([2]; first compound 2 µM): 0.14
- relative viability ([3]; first compound 0.02 µM): 0.518
- relative viability ([3]; first compound 0.2 µM): 0.477
- relative viability ([3]; first compound 0.6325 µM): 0.458
- relative viability ([3]; first compound 2 µM): 0.419
- relative viability ([4]; first compound 0.02 µM): 0.361
- relative viability ([4]; first compound 0.2 µM): 0.387
- relative viability ([4]; first compound 0.6325 µM): 0.283
- relative viability ([4]; first compound 2 µM): 0.194
- relative viability ([5]; first compound 0.02 µM): 0.358
- relative viability ([5]; first compound 0.2 µM): 0.323
- relative viability ([5]; first compound 0.6325 µM): 0.309
- relative viability ([5]; first compound 2 µM): 0.282
- relative viability ([6]; first compound 0.02 µM): 0.357
- relative viability ([6]; first compound 0.6325 µM): 0.366
- relative viability ([6]; first compound 2 µM): 0.254
- relative viability ([7]; first compound 0.02 µM): 0.265
- relative viability ([7]; first compound 0.2 µM): 0.256
- relative viability ([7]; first compound 0.6325 µM): 0.286
- relative viability ([7]; first compound 2 µM): 0.271
- relative viability ([8]; first compound 0.02 µM): 0.403
- relative viability ([8]; first compound 0.2 µM): 0.372
- relative viability ([8]; first compound 0.6325 µM): 0.365
- relative viability ([8]; first compound 2 µM): 0.24
- relative viability ([9]; first compound 0.02 µM): 0.967
- relative viability ([9]; first compound 0.2 µM): 0.891
- relative viability ([9]; first compound 0.6325 µM): 1.48
- relative viability ([9]; first compound 2 µM): 1.05
- relative viability ([10]; first compound 0.02 µM): 0.205
- relative viability ([10]; first compound 0.2 µM): 0.188
- relative viability ([10]; first compound 0.6325 µM): 0.204
- relative viability ([10]; first compound 2 µM): 0.193
- relative viability ([11]; first compound 0.02 µM): 0.26
- relative viability ([11]; first compound 0.2 µM): 0.249
- relative viability ([11]; first compound 0.6325 µM): 0.226
- relative viability ([11]; first compound 2 µM): 0.217
- relative viability ([12]; first compound 0.02 µM): 0.71
- relative viability ([12]; first compound 0.2 µM): 0.555
- relative viability ([12]; first compound 0.6325 µM): 0.691
- relative viability ([12]; first compound 2 µM): 0.625
- relative viability ([13]; first compound 0.02 µM): 0.314
- relative viability ([13]; first compound 0.2 µM): 0.368
- relative viability ([13]; first compound 0.6325 µM): 0.268
- relative viability ([13]; first compound 2 µM): 0.262
- relative viability ([14]; first compound 0.02 µM): 0.501
- relative viability ([14]; first compound 0.2 µM): 0.313
- relative viability ([14]; first compound 0.6325 µM): 0.439
- relative viability ([14]; first compound 2 µM): 0.255
- relative viability ([15]; first compound 0.02 µM): 0.118
- relative viability ([15]; first compound 0.2 µM): 0.0883
- relative viability ([15]; first compound 0.6325 µM): 0.0859
- relative viability ([15]; first compound 2 µM): 0.0757
- relative viability ([16]; first compound 0.02 µM): 0.407
- relative viability ([16]; first compound 0.2 µM): 0.397
- relative viability ([16]; first compound 0.6325 µM): 0.433
- relative viability ([16]; first compound 2 µM): 0.279
- relative viability ([17]; first compound 0.02 µM): 0.407
- relative viability ([17]; first compound 0.6325 µM): 0.383
- relative viability ([17]; first compound 2 µM): 0.314
- relative viability ([18]; first compound 0.02 µM): 0.557
- relative viability ([18]; first compound 0.6325 µM): 0.534
- relative viability ([18]; first compound 2 µM): 0.458
- relative viability ([19]; first compound 0.02 µM): 0.618
- relative viability ([19]; first compound 0.2 µM): 0.506
- relative viability ([19]; first compound 0.6325 µM): 0.525
- relative viability ([19]; first compound 2 µM): 0.454
- relative viability ([20]; first compound 0.02 µM): 0.243
- relative viability ([20]; first compound 0.2 µM): 0.241
- relative viability ([20]; first compound 0.6325 µM): 0.264
- relative viability ([20]; first compound 2 µM): 0.246
- relative viability ([21]; first compound 0.02 µM): 0.933
- relative viability ([21]; first compound 0.2 µM): 0.824
- relative viability ([21]; first compound 0.6325 µM): 0.834
- relative viability ([21]; first compound 2 µM): 0.469
- relative viability ([22]; first compound 0.02 µM): 0.546
- relative viability ([22]; first compound 0.2 µM): 0.533
- relative viability ([22]; first compound 0.6325 µM): 0.645
- relative viability ([22]; first compound 2 µM): 0.532

SMILES: CN1CCN(CCOc2cc(OC3CCOCC3)c3c(Nc4c(Cl)ccc5c4OCO5)ncnc3c2)CC1 [Saracatinib] + O=C(CCCCCCC(=O)Nc1ccccc1)NO [Vorinostat] (partner 1 µM)
- relative viability ([1]; first compound 0.02 µM): 0.971
- relative viability ([1]; first compound 0.2 µM): 0.868
- relative viability ([1]; first compound 0.6325 µM): 0.799
- relative viability ([1]; first compound 2 µM): 0.658
- relative viability ([2]; first compound 0.02 µM): 0.905
- relative viability ([2]; first compound 0.2 µM): 0.99
- relative viability ([2]; first compound 0.6325 µM): 1.37
- relative viability ([2]; first compound 2 µM): 0.857
- relative viability ([3]; first compound 0.02 µM): 0.54
- relative viability ([3]; first compound 0.2 µM): 0.57
- relative viability ([3]; first compound 0.6325 µM): 0.54
- relative viability ([3]; first compound 2 µM): 0.576
- relative viability ([4]; first compound 0.02 µM): 0.804
- relative viability ([4]; first compound 0.2 µM): 0.764
- relative viability ([4]; first compound 0.6325 µM): 0.91
- relative viability ([4]; first compound 2 µM): 0.696
- relative viability ([5]; first compound 0.02 µM): 0.879
- relative viability ([5]; first compound 0.2 µM): 0.668
- relative viability ([5]; first compound 0.6325 µM): 0.819
- relative viability ([5]; first compound 2 µM): 0.625
- relative viability ([6]; first compound 0.02 µM): 0.762
- relative viability ([6]; first compound 0.2 µM): 0.474
- relative viability ([6]; first compound 0.6325 µM): 0.817
- relative viability ([6]; first compound 2 µM): 0.494
- relative viability ([7]; first compound 0.02 µM): 0.417
- relative viability ([7]; first compound 0.2 µM): 0.43
- relative viability ([7]; first compound 0.6325 µM): 0.417
- relative viability ([7]; first compound 2 µM): 0.291
- relative viability ([8]; first compound 0.02 µM): 0.902
- relative viability ([8]; first compound 0.2 µM): 0.859
- relative viability ([8]; first compound 0.6325 µM): 0.931
- relative viability ([8]; first compound 2 µM): 0.861
- relative viability ([9]; first compound 0.02 µM): 1.14
- relative viability ([9]; first compound 0.2 µM): 1.14
- relative viability ([9]; first compound 0.6325 µM): 1
- relative viability ([9]; first compound 2 µM): 1.19
- relative viability ([10]; first compound 0.02 µM): 0.353
- relative viability ([10]; first compound 0.2 µM): 0.317
- relative viability ([10]; first compound 0.6325 µM): 0.224
- relative viability ([10]; first compound 2 µM): 0.234
- relative viability ([11]; first compound 0.02 µM): 0.445
- relative viability ([11]; first compound 0.2 µM): 0.339
- relative viability ([11]; first compound 0.6325 µM): 0.418
- relative viability ([11]; first compound 2 µM): 0.404
- relative viability ([12]; first compound 0.02 µM): 0.598
- relative viability ([12]; first compound 0.2 µM): 0.547
- relative viability ([12]; first compound 0.6325 µM): 0.598
- relative viability ([12]; first compound 2 µM): 0.554
- relative viability ([13]; first compound 0.02 µM): 0.652
- relative viability ([13]; first compound 0.2 µM): 0.591
- relative viability ([13]; first compound 0.6325 µM): 0.73
- relative viability ([13]; first compound 2 µM): 0.566
- relative viability ([14]; first compound 0.02 µM): 0.73
- relative viability ([14]; first compound 0.2 µM): 0.744
- relative viability ([14]; first compound 0.6325 µM): 0.702
- relative viability ([14]; first compound 2 µM): 0.37
- relative viability ([15]; first compound 0.02 µM): 0.645
- relative viability ([15]; first compound 0.2 µM): 0.442
- relative viability ([15]; first compound 0.6325 µM): 0.526
- relative viability ([15]; first compound 2 µM): 0.255
- relative viability ([16]; first compound 0.02 µM): 0.735
- relative viability ([16]; first compound 0.2 µM): 0.591
- relative viability ([16]; first compound 0.6325 µM): 0.677
- relative viability ([16]; first compound 2 µM): 0.604
- relative viability ([17]; first compound 0.02 µM): 0.652
- relative viability ([17]; first compound 0.2 µM): 0.471
- relative viability ([17]; first compound 0.6325 µM): 0.598
- relative viability ([17]; first compound 2 µM): 0.477
- relative viability ([18]; first compound 0.02 µM): 0.856
- relative viability ([18]; first compound 0.2 µM): 0.658
- relative viability ([18]; first compound 0.6325 µM): 0.897
- relative viability ([18]; first compound 2 µM): 0.778
- relative viability ([19]; first compound 0.02 µM): 1.12
- relative viability ([19]; first compound 0.2 µM): 0.996
- relative viability ([19]; first compound 0.6325 µM): 1.23
- relative viability ([19]; first compound 2 µM): 0.888
- relative viability ([20]; first compound 0.02 µM): 0.685
- relative viability ([20]; first compound 0.2 µM): 0.681
- relative viability ([20]; first compound 0.6325 µM): 0.721
- relative viability ([20]; first compound 2 µM): 0.765
- relative viability ([21]; first compound 0.02 µM): 0.819
- relative viability ([21]; first compound 0.2 µM): 0.47
- relative viability ([21]; first compound 0.6325 µM): 0.529
- relative viability ([21]; first compound 2 µM): 0.477
- relative viability ([22]; first compound 0.02 µM): 0.683
- relative viability ([22]; first compound 0.2 µM): 0.407
- relative viability ([22]; first compound 0.6325 µM): 0.676
- relative viability ([22]; first compound 2 µM): 0.367

From the supplement of paper PMC10307832
